Measurements taken from the NIST ThermoML archive (doi:10.1016/j.fluid.2012.09.007).
± gives the expanded uncertainty stated by the source.

Assay: xn = mol fraction of the nth substance listed
Conditions: 101 kPa, Liquid, Vibrating tube method

CCC(C)(C)OC [2-methoxy-2-methylbutane] + c1ccccc1
mass density (298.15 K, x2 = 0): 765.79 ± 1.2 kg/m3
mass density (298.15 K, x2 = 0.06414): 770.46 ± 1.1 kg/m3
mass density (298.15 K, x2 = 0.1353): 775.9 ± 0.97 kg/m3
mass density (298.15 K, x2 = 0.2019): 781.23 ± 0.87 kg/m3
mass density (298.15 K, x2 = 0.2693): 786.88 ± 0.76 kg/m3
mass density (298.15 K, x2 = 0.3352): 792.67 ± 0.67 kg/m3
mass density (298.15 K, x2 = 0.4021): 798.87 ± 0.58 kg/m3
mass density (298.15 K, x2 = 0.4653): 805.02 ± 0.5 kg/m3
mass density (298.15 K, x2 = 0.5342): 812.08 ± 0.43 kg/m3
mass density (298.15 K, x2 = 0.6022): 819.46 ± 0.36 kg/m3
mass density (298.15 K, x2 = 0.6671): 826.93 ± 0.3 kg/m3
mass density (298.15 K, x2 = 0.7367): 835.44 ± 0.24 kg/m3
mass density (298.15 K, x2 = 0.7973): 843.32 ± 0.2 kg/m3
mass density (298.15 K, x2 = 0.8665): 852.89 ± 0.16 kg/m3
mass density (298.15 K, x2 = 0.9336): 862.89 ± 0.13 kg/m3
mass density (308.15 K, x2 = 0): 756.23 ± 1.2 kg/m3
mass density (308.15 K, x2 = 0.06701): 761.09 ± 1.1 kg/m3
mass density (308.15 K, x2 = 0.1338): 766.17 ± 0.96 kg/m3
mass density (308.15 K, x2 = 0.2009): 771.51 ± 0.85 kg/m3
mass density (308.15 K, x2 = 0.2672): 777.02 ± 0.76 kg/m3
mass density (308.15 K, x2 = 0.3336): 782.8 ± 0.66 kg/m3
mass density (308.15 K, x2 = 0.4024): 789.11 ± 0.57 kg/m3
mass density (308.15 K, x2 = 0.4715): 795.77 ± 0.49 kg/m3
mass density (308.15 K, x2 = 0.5344): 802.18 ± 0.42 kg/m3
mass density (308.15 K, x2 = 0.6008): 809.31 ± 0.36 kg/m3
mass density (308.15 K, x2 = 0.6685): 816.98 ± 0.3 kg/m3
mass density (308.15 K, x2 = 0.7345): 824.97 ± 0.24 kg/m3
mass density (308.15 K, x2 = 0.7995): 833.32 ± 0.2 kg/m3
mass density (308.15 K, x2 = 0.8625): 841.93 ± 0.16 kg/m3
mass density (308.15 K, x2 = 0.9344): 852.47 ± 0.13 kg/m3
mass density (318.15 K, x2 = 0): 746.71 ± 1.2 kg/m3
mass density (318.15 K, x2 = 0.06757): 751.58 ± 1.1 kg/m3
mass density (318.15 K, x2 = 0.1346): 756.63 ± 0.94 kg/m3
mass density (318.15 K, x2 = 0.2014): 761.91 ± 0.84 kg/m3
mass density (318.15 K, x2 = 0.269): 767.5 ± 0.74 kg/m3
mass density (318.15 K, x2 = 0.3371): 773.39 ± 0.65 kg/m3
mass density (318.15 K, x2 = 0.4031): 779.4 ± 0.57 kg/m3
mass density (318.15 K, x2 = 0.4661): 785.42 ± 0.49 kg/m3
mass density (318.15 K, x2 = 0.5339): 792.26 ± 0.42 kg/m3
mass density (318.15 K, x2 = 0.6012): 799.41 ± 0.35 kg/m3
mass density (318.15 K, x2 = 0.6679): 806.93 ± 0.3 kg/m3
mass density (318.15 K, x2 = 0.7346): 814.9 ± 0.24 kg/m3
mass density (318.15 K, x2 = 0.7994): 823.13 ± 0.2 kg/m3
mass density (318.15 K, x2 = 0.8645): 831.93 ± 0.16 kg/m3
mass density (318.15 K, x2 = 0.9333): 841.85 ± 0.13 kg/m3

c1ccccc1 [benzene] + CC(C)CC(C)(C)C
mass density (298.15 K, x1 = 1): 873.52 ± 0.11 kg/m3
mass density (308.15 K, x1 = 1): 862.84 ± 0.11 kg/m3
mass density (318.15 K, x1 = 1): 852.18 ± 0.11 kg/m3

c1ccccc1 [benzene] + CCC(C)(C)OC
mass density (298.15 K, x1 = 1): 873.53 ± 0.11 kg/m3
mass density (308.15 K, x1 = 1): 862.85 ± 0.11 kg/m3
mass density (318.15 K, x1 = 1): 852.18 ± 0.11 kg/m3
